Source: patent US20120095059A1, “Compositions and Methods for Treating Type II Diabetes and Related Disorders” (priority 2010, published 2012)

What was measured:
[1] = test system: patients with type 2 diabetes; experiment: 12-week, double blind, randomized, parallel group, multi-center study of pioglitazone, glimepiride or their combination; assay type: in vivo, human; conditions: after 12 weeks, pioglitazone 15 mg per day, glimepiride 2 mg per day, or both; for HbA1c levels, change from baseline: baseline HbA1c greater than 8%
Description: Objective: […] Research Design and Methods: The study was a 12-week, double blind, randomized, parallel group, multi-center study, with 120 patients randomized to receive pioglitazone (15 mg per day), glimepiride (2 mg per day), or a combination of pioglitazone plus glimepiride (15 mg per day; 2 mg per day). Patients started a strict dietary regimen 1 week before receiving the first dose of each treatment. The study was open to patients with type 2 diabetes mellitus and having HbA1c levels greater than 8%. Patients were over 30 years of age and have had diabetes for at least 1 year.

[2] = test system: patients with advanced type 2 diabetes; experiment: Predicted effect of adding metformin as a third agent, based upon a meta-analysis of metformin clinical trials; assay type: in vivo, human; conditions: metformin added as third agent to pioglitazone plus glimepiride
Text: Patients having HbA1c levels greater than 7% have a high risk for developing cardiovascular disease and other complications of diabetes. Thus, in these patients, it is necessary to add a third agent to the regimen in order to obtain HbA1c values below 7%. Based upon a meta-analysis of metformin clinical trials, the addition of metformin as a third agent to this regimen will produce an additional reduction in HbA1c of about 1% and will contribute to adequate glycemic control in such patients with advanced type 2 diabetes. The addition of metformin in this triple therapy provides a synergistic mechanism of action, both improving insulin sensitivity and suppressing hepatic glucose output.

[3] = test system: patients with type 2 diabetes mellitus; conditions: monotherapy; Rosenstock et al., Diabetes Care 25:1529-1533 (2002); cited from earlier work

| Structure (SMILES) | fasting blood glucose, decrease from baseline [1] | HbA1c levels, change from baseline [1] | additional reduction in HbA1c [2] | reduction in HbA1c [3] |
| --- | --- | --- | --- | --- |
| CCC1=C(C)CN(C(=O)NCCc2ccc(S(=O)(=O)NC(=O)N[C@H]3CC[C@H](C)CC3)cc2)C1=O [glimepiride] | -22 mg/dL | −0.98% |  |  |
| CN(C)C(=N)N=C(N)N [metformin] |  |  | about 1% |  |
| CC(C)[C@H]1CC[C@H](C(=O)N[C@H](Cc2ccccc2)C(=O)O)CC1 [nateglinide] |  |  |  | 0.6% |
| CCc1ccc(CCOc2ccc(CC3SC(=O)NC3=O)cc2)nc1 (stereo not drawn) [pioglitazone] | -28 mg/dL | −0.14% |  |  |
